The values that follow come from PMC13286052 (Antimicrobial Agents and Chemotherapy, 2026).

Series [1] deals with VACV. Type of series: cell-based, vaccinia virus. Particulars: 48 h.
For series [2], the system named is VACV. The following applies: cited from earlier work.
For another series, the system named is MPXV resolvase (Mpr). The class given is biochemical, monkeypox virus. The following applies: 50 µM.
A further series deals with poxvirus resolvases. Particulars: cited from earlier work.
In a further series the test system is vaccinia virus (VACV). Nature of the series: microbe, parasite or virus in culture. Type of series: cell-based. Particulars: for EC50: Orthopoxvirus vaccinia.
The test system of a further series is VACV E3. Type of series: cell-based, vaccinia virus. Particulars: 10 µM.
The next series concerns VACV DNA replication. Type of series: cell-based, vaccinia virus. Particulars: 10 µM.
For series [3] the following is noted: microsomes; cited from earlier work.
A further series concerns pUL89C. The following applies: cited from earlier work.
The conditions of series [4]: male, CD-1, mouse, in vivo.
The next series is described as follows: in vitro. Particulars: human.
Series [5] concerns VACV. The class given is cell-based, vaccinia virus.
A short description of the next series: in vivo. Particulars: male, CD-1, mouse.
In a further series the test system is VACV gene expression. Type of series: cell-based. The following applies: 10 µM.
Series [6] deals with VACV. The class given is cell-based, vaccinia virus. The following applies: 10 µM.
Another series concerns HCMV. Particulars: cited from earlier work.

In general, EC50 refers to the midpoint of the concentration-response curve. Read a high EC50 as a need for much substance. The term bioavailability denotes the share of a dose that reaches the circulation, judged against a reference dose that is usually intravenous. The AUC(0-t) is the area under the concentration-time curve up to a stated or last time point. Broadly, the Cmax is the maximum level reached in the sampled fluid or tissue. As usually defined, the MRT last is the average time that molecules of a dose stay in the body. What is called Tmax is the time from dosing to the highest level. The clearance is a measure of how efficiently the substance is removed, as volume per time. In general, half-life refers to the time in which the quantity being followed falls by half. Low values mean rapid decline, high ones slow decline.

Entries after “also recorded” stand apart in the source; their conditions may differ. Where only a bound is given, the exact number is not on record here.

As for `Nc1ccn([C@@H]2O[C@H](CO)[C@@H](O)[C@@H]2O)c(=O)n1` [AraC, Cytarabine, reference compound], the “late viral gene expression in rhesus colon enteroids” value in the series with VACV [1] is on record as “markedly reduced”.

`Cc1cc(C2CCCCC2)n(O)c(=O)c1` [Ciclopirox]: in the series on VACV [2], the “inhibition of VACV replication” value was “efficient inhibitors of VACV replication”.

As for `O=c1c(-c2ccccc2)c(O)c2cc(-c3cccc(-c4ccccc4)c3)cnc2n1O` [Compound 1, reference compound], the Mpr inhibition result in the series with MPXV resolvase (Mpr) is “nearly complete inhibition”. Moreover, in the series with poxvirus resolvases, the “inhibition of poxvirus resolvases” value is “potently inhibits”.

Take `O=C(NNc1nc2cc(F)ccc2n2cccc12)c1cnccn1` [SC144]: the “inhibition of VACV replication” value with VACV [2] is reported as “efficient inhibitors of VACV replication”.

In turn, `O=C(NN1C(=O)[C@@H]2[C@@H]3C=C[C@@H]([C@H]4C[C@@H]34)[C@@H]2C1=O)c1ccc(C(F)(F)F)cc1` [Tecovirimat, reference compound] gave a concentration giving a half-maximal response (EC50) in the series with vaccinia virus (VACV) of 25 nM.

`O=C(NCCc1ccc(F)cc1F)c1cn(Cc2ccc(F)cc2)cc(O)c1=O` [ZW-2038]: the E3 levels entry in the series on VACV E3 is “did not reduce”. For the same compound, the “viral DNA accumulation” value in the series on VACV DNA replication is “marked reduction”. For the same compound, in series [3], the microsomal stability entry is “good”. Also, the “inhibition of pUL89C” value in the series with pUL89C is “did not inhibit”. Besides, in series [4], the “Bioavailability (F, %)” value was 4.1% and the “oral Cmax lower than IV Cmax” value was 14 fold. In series [4] (po, 20 mg/kg), the CL was 67 ± 50 mL/min/kg and the V amounted to 117 ± 46 L/kg. Besides, the Mpr inhibition result in the series with MPXV resolvase (Mpr) is “no Mpr inhibition; also recorded: did not inhibit”. The compound also registered a CC50 in the series “in vitro” of over 500000 nM. Further, the “reduction of Gaussia luciferase activity” value in the series with vaccinia virus (VACV) (10 µM) was “more than 99%”. In addition, in the series on vaccinia virus (VACV), it took 876 nM to reach a half-maximal effect (EC50). The “viral replication (luciferase activity) in human jejunum enteroids” value in the series with VACV [5] is listed as “significantly suppressed”. Further, the “late viral gene expression in rhesus colon enteroids” value in the series with VACV [1] is given as “markedly reduced”. In “in vivo” (Bioavailability (F, %)), this compound showed a bioavailability of 4%. In “in vivo” (iv, 2 mg/kg), the exposure AUC(0-t) turned out to be 238 ± 54 ng·h/mL, the peak level (Cmax) was 528 ng/mL, the mean residence time MRT last turned out to be 0.9 ± 0.4 h and the Tmax was found to be 0.08 h. Moreover, in the series “in vivo” (iv, 2 mg/kg), the clearance is 150 mL/min/kg and the half-life is 5 ± 2 h. In the series “in vivo” (po, 20 mg/kg), the AUC(0-t) came to 98 ± 15 ng·h/mL, the Cmax came out at 38 ng/mL, the MRT last turned out to be 11 ± 2 h and the time to peak (Tmax) was 0.2 ± 0.2 h. Besides, the half-life in the series “in vivo” (po, 20 mg/kg) is 104 ± 159 h. Also, in the series with VACV gene expression, the “luciferase activity from the early promoter (vEGluc)” value is “did not affect”, the “reporter activity from intermediate promoter (vIGluc)” value is recorded as “significantly diminished” and the “reporter activity from late promoter (vLGluc)” value was “significantly diminished”. The “VACV titers in ex vivo mouse lung tissue” value in the series with VACV [6] is recorded as “consistently reduced”. The “cell viability compared to vehicle” value in the series on HFFs is “no significant difference”. For the same compound, the “inhibition of HCMV” value in the series on HCMV is listed as “potently inhibited”.
